Results: ChEMBL document CHEMBL1201862, “PubChem BioAssay data set” (2004)
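Following 48 hours of exposure in 96-well plates, responses at five concentrations were used to interpolate endpoints linearly. GI50 = concentration required for 50% inhibition of growth.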 The source made the active and inactive calls. Cut-off read from the data, not from the text of the source: active = GI50 up to about 1.1 µM and inactive = higher.

Assays:
Assay in all cases: NCI-60 cell line screen, 48 h
[1] = system: MCF7
[2] = system: HL-60
[3] = system: Malme-3M
[4] = system: NCI-H23
[5] = system: HCC 2998
[6] = system: K562
[7] = system: EKVX
[8] = system: HT-29
[9] = system: DU-145
[10] = system: SN12C
[11] = system: 786-0
[12] = system: UO-31
[13] = system: NCI/ADR-RES
[14] = system: NCI-H460
[15] = system: SK-MEL-5
[16] = system: LOX IMVI
[17] = system: SW-620
[18] = system: A549
[19] = system: NCI-H226

CCOC(=O)NC(Nc1ccc(OC(F)(F)F)cc1)(C(F)(F)F)C(F)(F)F
GI50 [1]: > 100 µM (inactive) | GI50 [2]: > 100 µM (inactive) | GI50 [3]: > 100 µM (inactive) | GI50 [4]: > 100 µM (inactive) | GI50 [5]: > 100 µM (inactive) | GI50 [6]: > 100 µM (inactive) | GI50 [7]: > 100 µM (inactive) | GI50 [8]: > 100 µM (inactive) | GI50 [9]: > 100 µM (inactive) | GI50 [10]: > 100 µM (inactive) | GI50 [11]: > 100 µM (inactive) | GI50 [12]: > 100 µM (inactive) | GI50 [13]: > 100 µM (inactive) | GI50 [14]: > 100 µM (inactive) | GI50 [15]: > 100 µM (inactive) | GI50 [16]: > 100 µM (inactive) | GI50 [17]: > 100 µM (inactive) | GI50 [18]: > 100 µM (inactive) | GI50 [19]: > 100 µM (inactive)

O=C1CSC(c2cccc([N+](=O)[O-])c2)N1c1ccc(-n2c(-c3ccccc3)nc3ccccc3c2=O)cc1 (centres undefined)
GI50 [1]: > 100 µM (inactive) | GI50 [2]: > 100 µM (inactive) | GI50 [3]: > 100 µM (inactive) | GI50 [4]: > 100 µM (inactive) | GI50 [5]: 63.7 µM (inactive) | GI50 [6]: > 100 µM (inactive) | GI50 [7]: > 100 µM (inactive) | GI50 [8]: > 100 µM (inactive) | GI50 [9]: > 100 µM (inactive) | GI50 [10]: > 100 µM (inactive) | GI50 [11]: > 100 µM (inactive) | GI50 [12]: 3.76 µM (inactive) | GI50 [13]: > 100 µM (inactive) | GI50 [14]: > 100 µM (inactive) | GI50 [15]: > 100 µM (inactive) | GI50 [16]: > 100 µM (inactive) | GI50 [17]: > 100 µM (inactive) | GI50 [18]: > 100 µM (inactive) | GI50 [19]: > 100 µM (inactive)

CCCCn1c(C)c2c(c1C)C(=O)N(CCN1CCN(c3ccccc3Cl)CC1)C2=O
GI50 [1]: 32.4 µM (inactive) | GI50 [2]: 22.1 µM (inactive) | GI50 [3]: 21 µM (inactive) | GI50 [4]: 27.2 µM (inactive) | GI50 [5]: 30.6 µM (inactive) | GI50 [6]: 31.6 µM (inactive) | GI50 [7]: 35.6 µM (inactive) | GI50 [8]: 16.4 µM (inactive) | GI50 [9]: 36 µM (inactive) | GI50 [10]: 26.7 µM (inactive) | GI50 [11]: > 10 µM (inactive) | GI50 [12]: 17.6 µM (inactive) | GI50 [13]: 46.7 µM (inactive) | GI50 [14]: 35.5 µM (inactive) | GI50 [15]: 19.9 µM (inactive) | GI50 [16]: 16.5 µM (inactive) | GI50 [17]: 37.5 µM (inactive) | GI50 [18]: 38.2 µM (inactive) | GI50 [19]: 36.9 µM (inactive)

C=C1C(=O)O[C@@H]2[C@@H]3O[C@@H](C[C@@H]13)[C@](C)(O)CC/C=C(\C)CCC[C@@H]2C
GI50 [1]: 7.48 µM (inactive) | GI50 [2]: 2.8 µM (inactive) | GI50 [3]: 13.3 µM (inactive) | GI50 [4]: 13.3 µM (inactive) | GI50 [5]: 17.7 µM (inactive) | GI50 [6]: 4.66 µM (inactive) | GI50 [7]: 15 µM (inactive) | GI50 [8]: 17.3 µM (inactive) | GI50 [9]: 14.2 µM (inactive) | GI50 [10]: 12 µM (inactive) | GI50 [11]: 5.42 µM (inactive) | GI50 [12]: 10.8 µM (inactive) | GI50 [13]: 10.6 µM (inactive) | GI50 [14]: 14.1 µM (inactive) | GI50 [15]: 16.4 µM (inactive) | GI50 [16]: 4.75 µM (inactive) | GI50 [17]: 5.46 µM (inactive) | GI50 [18]: 17.4 µM (inactive) | GI50 [19]: 19.7 µM (inactive)

CCOP(=O)(OCC)C(Nc1cccc(F)c1)c1ccccc1 (centres undefined)
GI50 [1]: 76.6 µM (inactive) | GI50 [2]: 18.1 µM (inactive) | GI50 [3]: 50.7 µM (inactive) | GI50 [4]: > 100 µM (inactive) | GI50 [5]: 66.1 µM (inactive) | GI50 [6]: 34.8 µM (inactive) | GI50 [7]: 40.5 µM (inactive) | GI50 [8]: 58.1 µM (inactive) | GI50 [9]: > 100 µM (inactive) | GI50 [10]: 75.9 µM (inactive) | GI50 [11]: > 100 µM (inactive) | GI50 [12]: 44.8 µM (inactive) | GI50 [13]: 34.5 µM (inactive) | GI50 [14]: 43.9 µM (inactive) | GI50 [15]: 42.2 µM (inactive) | GI50 [16]: 75.7 µM (inactive) | GI50 [17]: > 10 µM (inactive) | GI50 [18]: 43.9 µM (inactive) | GI50 [19]: 93.5 µM (inactive)

CC(C)=CCC[C@@H](C)C1=CC(=O)C(C)=C(O)C1=O [ISOPEREZONE]
GI50 [1]: 3.62 µM (inactive) | GI50 [2]: 0.3 µM (active) | GI50 [3]: 10.2 µM (inactive) | GI50 [4]: 6.75 µM (inactive) | GI50 [5]: 17.1 µM (inactive) | GI50 [6]: 1.58 µM (inactive) | GI50 [7]: 5.56 µM (inactive) | GI50 [8]: 7.16 µM (inactive) | GI50 [9]: 6.08 µM (inactive) | GI50 [10]: 10.7 µM (inactive) | GI50 [11]: 5.78 µM (inactive) | GI50 [12]: 3.69 µM (inactive) | GI50 [13]: 3.19 µM (inactive) | GI50 [14]: 16.3 µM (inactive) | GI50 [15]: 6.12 µM (inactive) | GI50 [16]: 2.83 µM (inactive) | GI50 [17]: 4.02 µM (inactive) | GI50 [18]: 12.3 µM (inactive) | GI50 [19]: 7.19 µM (inactive)
